pIC50: −log10 of the molar value. *1 amine or outer side, *2 acyl side, *3 side chain or, on linkers, in order; H or OH if unused. Where a SMILES comes first, the peptide text is derived from it. Bridges are numbered along the chain shown (N, C = ends). [ ]: non-standard residue; d: D form. The star is where a group is joined. X52 = CN1C[C@@H]2C[C@H]1CN2c1ccc(-c2ccc(Cl)cc2C[C@@H](C(=O)[*:2])N(C)[*:1])cc1; X3 = COCCOCCN1CCN(c2ccc(-c3ccc(Cl)cc3C[C@@H](C(=O)[*:2])N(C)[*:1])cc2)CC1; X98 = CN1CC2(C1)OCc1cc(-c3ccc(Cl)cc3C[C@@H](C(=O)[*:2])N(C)[*:1])ccc12; X80 = CN1CC=C(c2ccc(-c3ccc(Cl)cc3C[C@@H](C(=O)[*:2])N(C)[*:1])cc2)CC1; X31 = CN1CCC(c2ccc(-c3ccc(Cl)cc3C[C@@H](C(=O)[*:2])N(C)[*:1])cc2)CC1; X12 = CN1CCN(c2ccc(-c3ccc(F)cc3C[C@@H](C(=O)[*:2])N(C)[*:1])cc2)CC1; NMehhhLys(Me) = CN([C@@H](CCCCCCCN(C)[*:3])C(=O)[*:2])[*:1]; cBuCO(3,3-F2-1-CF3) = O=C(C1(C(F)(F)F)CC(F)(F)C1)*; Pro(trans-4-F) = O=C(O)[C@@H]1C[C@@H](F)CN1; Gly(cPr) = N[C@H](C(=O)O)C1CC1
Key:
OVCAR3 cells = assay: MTT proliferation assay, OVCAR3; assay type: cell-based; settings: 5 days compound exposure, 1:3 serial dilution starting at 10 μM;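 also: compound given as an 8- or 10-point series, one day after plating, with exposure covering roughly 3-4 cell doublings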
CyclinA2/CDK2 = target: T1, CyclinA2/CDK2 (Homo sapiens, UniProt P20248); assay: Fluorescence Polarization (FP) competitive binding assay, Cyclin A2/Cdk2; settings: 8 nM Cyclin A2/Cdk2, 2 nM FAM probe; average of 2-3 independent experiments; read-out: Cyclin A FP IC50;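 also: plates equilibrated two hours at room temperature before polarization reading, IC50 fitted from eight-concentration compound titration curves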
T1 construct: purchased CRELUX Protein Services

WI-38 cells = assay: MTT proliferation assay, WI-38; assay type: cell-based; settings: 3 days compound exposure, 1:3 serial dilution starting at 10 μM;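 also: Eight- or ten-point dilution series, with exposure length chosen to span about three to four cell doublings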
CyclinB1/CDK1 = target: T2, CyclinB1/CDK1 (Homo sapiens, UniProt P14635); assay: Fluorescence Polarization (FP) competitive binding assay, Cyclin B1/Cdk1; settings: 10 nM Cyclin B1/Cdk1, 2 nM FAM probe; average of 2-3 independent experiments; read-out: Cyclin B FP IC50;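 also: fluorescence polarization read after equilibration at room temperature, with IC50 taken from serially diluted dose-response curves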
T2 construct: purchased Eurofins, discovery 14-450

NCI-H1048 cells = assay: MTT proliferation assay, NCI-H1048; assay type: cell-based; settings: 5 days compound exposure, 1:3 serial dilution starting at 10 μM;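 also: Dose-response in 96-well plates over 8 or 10 concentration points, with exposure spanning 3-4 cell doublings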
CyclinE1/CDK2 = target: T3, CyclinE1/CDK2 (Homo sapiens, UniProt P24864); assay: Fluorescence Polarization (FP) competitive binding assay, Cyclin E1/Cdk2; settings: 10 nM Cyclin E1/Cdk2, 2 nM FAM probe; average of 2-3 independent experiments; read-out: Cyclin E FP IC50;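 also: readings taken after two-hour equilibration at room temperature in HEPES buffer with NaCl, DTT, NP-40 and BSA, IC50 fitted from eight-concentration serial dilution series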
T3 construct: purchased Eurofins, discovery 14-475

SMILES	GI50 (OVCAR3 cells)	pIC50 (CyclinA2/CDK2)	GI50 (WI-38 cells)	pIC50 (CyclinB1/CDK1)	GI50 (NCI-H1048 cells)	pIC50 (CyclinE1/CDK2)
CC(C)C[C@@H]1NC(=O)[C@@H](N(C)C(=O)[C@@H](NC(=O)[C@@H]2C[C@@H](F)CN2C(=O)C2(C(F)(F)F)CC(F)(F)C2)C2CC2)CCCCCCCN(C)C(=O)[C@H](Cc2cc(Cl)ccc2-c2ccc(C3=CCN(C)CC3)cc2)N(C)C1=O [Example 351] ({cBuCO(3,3-F2-1-CF3)}-[Pro(trans-4-F)][Gly(cPr)][NMehhhLys(Me)]L[X80]; lactam 3-C)	10 nM	7.70	1780 nM	7.70	10 nM	6.01
CC(C)C[C@@H]1NC(=O)[C@@H](N(C)C(=O)[C@@H](NC(=O)[C@@H]2C[C@@H](F)CN2C(=O)C2(C(F)(F)F)CC(F)(F)C2)C2CC2)CCCCCCCN(C)C(=O)[C@H](Cc2cc(F)ccc2-c2ccc(N3CCN(C)CC3)cc2)N(C)C1=O [Example 353] ({cBuCO(3,3-F2-1-CF3)}-[Pro(trans-4-F)][Gly(cPr)][NMehhhLys(Me)]L[X12]; lactam 3-C)	10 nM	7.70	3490 nM	7.70	10 nM	6.66
CC(C)C[C@@H]1NC(=O)[C@@H](N(C)C(=O)[C@@H](NC(=O)[C@@H]2C[C@@H](F)CN2C(=O)C2(C(F)(F)F)CC(F)(F)C2)C2CC2)CCCCCCCN(C)C(=O)[C@H](Cc2cc(Cl)ccc2-c2ccc3c(c2)COC32CN(C)C2)N(C)C1=O [Example 355] ({cBuCO(3,3-F2-1-CF3)}-[Pro(trans-4-F)][Gly(cPr)][NMehhhLys(Me)]L[X98]; lactam 3-C)	10 nM	7.70	2770 nM	7.70	10 nM	5.75
COCCOCCN1CCN(c2ccc(-c3ccc(Cl)cc3C[C@H]3C(=O)N(C)CCCCCCC[C@H](N(C)C(=O)[C@@H](NC(=O)[C@@H]4C[C@@H](F)CN4C(=O)C4(C(F)(F)F)CC(F)(F)C4)C4CC4)C(=O)N[C@@H](CC(C)C)C(=O)N3C)cc2)CC1 [Example 356] ({cBuCO(3,3-F2-1-CF3)}-[Pro(trans-4-F)][Gly(cPr)][NMehhhLys(Me)]L[X3]; lactam 3-C)	10 nM	7.70	3430 nM	7.70	10 nM	6.47
CC(C)C[C@@H]1NC(=O)[C@@H](N(C)C(=O)[C@@H](NC(=O)[C@@H]2C[C@@H](F)CN2C(=O)C2(C(F)(F)F)CC(F)(F)C2)C2CC2)CCCCCCCN(C)C(=O)[C@H](Cc2cc(Cl)ccc2-c2ccc(N3C[C@@H]4C[C@H]3CN4C)cc2)N(C)C1=O [Example 357] ({cBuCO(3,3-F2-1-CF3)}-[Pro(trans-4-F)][Gly(cPr)][NMehhhLys(Me)]L[X52]; lactam 3-C)	50 nM	7.52	3140 nM	7.70	20 nM	5.71
CC(C)C[C@@H]1NC(=O)[C@@H](N(C)C(=O)[C@@H](NC(=O)[C@@H]2C[C@@H](F)CN2C(=O)C2(C(F)(F)F)CC(F)(F)C2)C2CC2)CCCCCCCN(C)C(=O)[C@H](Cc2cc(Cl)ccc2-c2ccc(C3CCN(C)CC3)cc2)N(C)C1=O [Example 358] ({cBuCO(3,3-F2-1-CF3)}-[Pro(trans-4-F)][Gly(cPr)][NMehhhLys(Me)]L[X31]; lactam 3-C)	10 nM	7.70	2130 nM	7.70	10 nM	6.26
